From PMC5108082, “Pharmacokinetics, toxicity, and cytochrome P450 modulatory activity of plumbagin” (BMC Pharmacology & Toxicology, 2016)

Legend:
[1] = acute toxicity test, single oral dose; type: in vivo, rat; details: both sexes, Wistar, rat, in vivo, rats, single oral dose
Description: (§1) Plumbagin was dissolved with 20 % Tween-80 to obtain the desired concentrations. Wistar rats were fasting 2 h before administration of a single oral dose of the plumbagin. Animals were divided into eight groups of six (3 males and 3 females for each group). For the acute toxicity test, rats in each group were fed with plumbagin at a single oral dose of 500, 250, or 150 mg/kg body weight (1 mL); control group received a single oral dose of 20 % Tween-80 (1 mL). For the subacute toxicity test, rats in each group were fed with plumbagin at a daily dose of 100, 50, or 25 mg/kg body weight (1 mL) for 28 days; control group received a daily oral dose of 20 % Tween-80 for 28 days (1 mL).
(§2) General behavioral changes of each rat was observed continuously for 1 h after each dose, intermittently every 4 h, and thereafter over a period of 24 h. […] At the end of the observation period, all animals were sacrificed under ether anesthesia (isoflurane) and vital organs (liver, lung, kidney, heart, and spleen) were removed from all animals for gross and histopathological examination. Blood sample was collected from each rat through cardiac puncture for analysis of plasma chemistry (heparin as an anticoagulant) and blood hematology (EDTA as an anticoagulant).

Wistar rats = experiment: acute toxicity test, single oral dose; type: in vivo, rat
Description: as §1, §2

[2] = tested on: platelet adhesion and coagulation; details: rats, daily doses of 2 mg/kg body weight; plumbagin as a component of Plumbago zeylanica; cited from earlier work
mice = details: cited from earlier work
CYP2C19 = details: cited from earlier work
[3] = tested on: 3D7 chloroquine-sensitive P. falciparum; details: 3D7 clone; read-out: median IC50; cited from earlier work
CYP1A2 mRNA = CYP1A2 mRNA expression in livers of treated mice (RT-PCR); type: in vivo, mouse; details: mice, 25, 12.5, 6.25 mg/kg daily oral for 28 days vs control
Description: Mice were divided into four groups (3 male mice each). Mice in the treated groups were fed with plumbagin at a daily oral dose of 25, 12.5, or 6.25 mg/kg body weight (1 mL) for 28 days. The control group received a daily oral dose (1 mL) of 20 % Tween-80 for 28 days. At the end of the experiment period, all animals were sacrificed under ether anesthesia and livers were removed for investigation of the modulatory effect of plumbagin on hepatic CYP1A2 and CYP3A11.
The liver sample isolated from each mouse was rinsed with ice-cold, 0.9 % NaCl and total RNA was prepared using Trizol^TM reagent according to the manufacturer’s protocol (Invitrogen, Karlsruhe, Germany). Briefly, the sample was homogenized in TRIZOL reagent (1 mL) per 50–100 mg of tissue. The homogenized sample was incubated at 25 °C for 5 min and chloroform (0.2 mL/1 mL of TRIZOL reagent) was added. The sample was thoroughly mixed and incubated at 25 °C for 3 min. Following centrifugation (12,000 × g for 15 min, 2–8 °C), the sample was separated into a lower red phenol-chloroform phase, an interphase, and a colorless upper aqueous phase. […] The RNA pellets were dried and dissolved in 20 μL DEPC-treated water and the concentrations were determined using NanoDrop Spectrophotometry (NanoDrop Technologies, Wilmington, DE, USA). […]

parasitemia = tested on: parasitemia; set-up: method as in PMID 24410949; details: 25 mg/kg body weight given for 4 days; cited from earlier work
[4] = single oral dose 150 mg/kg body weight, 14 days observation

In the case of `CC1=CC(=O)c2c(O)cccc2C1=O` [plumbagin, 5-hydroxy-2-methyl-1,4-naphthoquinone], the LD50 at 14 days ([1]; read-out: 50 % lethal dose (LD50), acute toxicity) is reported as 250 mg/kg, the MTD at 14 days ([1]; read-out: maximum tolerated dose, acute toxicity) is reported as 150 mg/kg and the gender-specific toxicity (Wistar rats; all dose levels) is reported as “No gender-specific toxicity was observed”. For the same compound, the “histopathological examination (liver, kidney, heart, spleen, lung)” value (Wistar rats; all dose levels (150, 250, 500 mg/kg)) was “no significant change in size and morphology”, the “signs of toxicity, water and food consumption, body weight” value (Wistar rats; [4]) was “no visible sign of toxicity” and the survival (Wistar rats; [4]) was “All rats survived”. The animals died (Wistar rats; single oral dose 250 mg/kg body weight) was 3/6, the animals died (Wistar rats; single oral dose 500 mg/kg body weight) was 6/6 and the signs of toxicity (Wistar rats; single oral dose 250 and 500 mg/kg body weight) was “toxic signs and symptoms including anxiety, salivation, exhibited chewing, and agitation”. For the same compound, the “platelet adhesion and coagulation” value [2] was “significantly decreased”, the “maximal tolerated dose, subacute toxicity testing” value (mice; mice, for 14 days, ref our previous study) was 25 mg/kg body weight and the “types of toxicity reported” value (mice; mice) was “diarrhea, skin rashes, leukocytosis, increased serum phosphatase levels”. For the same compound, the “maximal tolerated dose, acute toxicity testing” value (mice; mice, ref our previous study) was 100 mg/kg body weight, the hepatotoxicity (mice; mouse, in vivo) was “marked increased plasma ALT and AST levels” and the IC50 (CYP2C19) was 780 nM. The IC50 [3] was 580 nM, the “modulation of CYP1A2 mRNA expression” value (CYP1A2 mRNA) was “not found to induce or inhibit” and the “modulation of CYP1A2 mRNA expression” value (CYP1A2 mRNA; listed as Plumbagin) was “did not significantly modulate”. The “antimalarial activity in vivo (reduction of parasitemia, prolongation of survival time)” value (parasitemia) was “weak”.
